Values joined by “and” are separate entries in the source; they are usually repeats but may differ in a detail not shown here. Equal values may be shown once.
Conditions: Liquid; for viscosity: Falling or rolling sphere viscometry; for mass density: 101.33 kPa

CC(C)CCCCCCCOC(=O)c1ccccc1C(=O)OCCCCCCCC(C)C
Conditions | viscosity
273.15 K, 100 kPa | 625.8 mPa·s
273.15 K, 9900 kPa | 845.1 mPa·s
298.15 K, 100 kPa | 87.41 mPa·s and 87.37 mPa·s
298.15 K, 9600 kPa | 110.7 mPa·s
298.15 K, 20600 kPa | 145 mPa·s
298.15 K, 20700 kPa | 145.5 mPa·s
298.15 K, 30100 kPa | 182.5 mPa·s
298.15 K, 30300 kPa | 183 mPa·s
298.15 K, 40700 kPa | 234.2 mPa·s
298.15 K, 50200 kPa | 289.4 mPa·s
298.15 K, 59200 kPa | 356.2 mPa·s
298.15 K, 71600 kPa | 465.4 mPa·s
298.15 K, 82000 kPa | 589 mPa·s
298.15 K, 83300 kPa | 608.4 mPa·s
313.15 K, 100 kPa | 37.71 mPa·s
313.15 K, 10900 kPa | 47.29 mPa·s
313.15 K, 21200 kPa | 58.95 mPa·s
313.15 K, 30600 kPa | 71.54 mPa·s
313.15 K, 40900 kPa | 88.99 mPa·s
313.15 K, 51600 kPa | 109.1 mPa·s
313.15 K, 62400 kPa | 136.7 mPa·s
313.15 K, 71300 kPa | 160.8 mPa·s
313.15 K, 80300 kPa | 192.4 mPa·s
313.15 K, 89800 kPa | 234.4 mPa·s
338.15 K, 100 kPa | 13.37 mPa·s [middle of 4 runs]
338.15 K, 9700 kPa | 15.54 mPa·s
338.15 K, 10700 kPa | 16.28 mPa·s
338.15 K, 19400 kPa | 18.62 mPa·s
338.15 K, 20500 kPa | 19.38 mPa·s
338.15 K, 31000 kPa | 23.29 mPa·s
338.15 K, 31770 kPa | 23.04 mPa·s
338.15 K, 40100 kPa | 27.24 mPa·s
338.15 K, 41110 kPa | 26.91 mPa·s
338.15 K, 50300 kPa | 32.42 mPa·s
338.15 K, 51100 kPa | 31.86 mPa·s
338.15 K, 60400 kPa | 38.31 mPa·s
338.15 K, 60510 kPa | 37.34 mPa·s
338.15 K, 70700 kPa | 45.25 mPa·s
338.15 K, 70710 kPa | 43.6 mPa·s
338.15 K, 80200 kPa | 52.53 mPa·s
338.15 K, 80970 kPa | 51.73 mPa·s
348.15 K, 100 kPa | 9.71 mPa·s
348.15 K, 9800 kPa | 11.47 mPa·s
348.15 K, 20600 kPa | 13.71 mPa·s
348.15 K, 30230 kPa | 15.96 mPa·s
348.15 K, 31300 kPa | 16.34 mPa·s
348.15 K, 40810 kPa | 18.91 mPa·s
348.15 K, 50600 kPa | 22.15 mPa·s
348.15 K, 50710 kPa | 22.05 mPa·s
348.15 K, 61220 kPa | 25.89 mPa·s
348.15 K, 69800 kPa | 29.77 mPa·s
348.15 K, 72330 kPa | 30.55 mPa·s
348.15 K, 85770 kPa | 37.23 mPa·s

CC(C)CCCC(C)CCCC(C)CCCCC(C)CCCC(C)CCCC(C)C (stereo not drawn) [2,6,10,15,19,23-hexamethyltetracosane]
Conditions | viscosity
273.15 K, 100 kPa | 116 mPa·s and 116.2 mPa·s
273.15 K, 600 kPa | 121.9 mPa·s
273.15 K, 10600 kPa | 159.6 mPa·s
273.15 K, 20600 kPa | 208 mPa·s
273.15 K, 30700 kPa | 267.6 mPa·s
273.15 K, 41400 kPa | 348.4 mPa·s
273.15 K, 50500 kPa | 442.3 mPa·s
283.15 K, 100 kPa | 59.25 mPa·s and 59.27 mPa·s
283.15 K, 9600 kPa | 76.31 mPa·s
283.15 K, 19900 kPa | 97.69 mPa·s
283.15 K, 25810 kPa | 115.2 mPa·s
283.15 K, 50880 kPa | 206.5 mPa·s
283.15 K, 76760 kPa | 360.6 mPa·s
283.15 K, 100400 kPa | 573.5 mPa·s
293.15 K, 100 kPa | 35.97 mPa·s and 35.96 mPa·s
298.15 K, 100 kPa | 28.45 mPa·s [middle of 6 runs]
298.15 K, 700 kPa | 28.57 mPa·s
298.15 K, 800 kPa | 28.67 mPa·s
298.15 K, 10800 kPa | 35.77 mPa·s
298.15 K, 20600 kPa | 44.2 mPa·s
298.15 K, 26000 kPa | 49.37 mPa·s
298.15 K, 30800 kPa | 54.49 mPa·s
298.15 K, 40200 kPa | 65.84 mPa·s
298.15 K, 50100 kPa | 80.08 mPa·s
298.15 K, 50600 kPa | 81.24 mPa·s
298.15 K, 51600 kPa | 84.03 mPa·s
298.15 K, 60700 kPa | 98.21 mPa·s
298.15 K, 70700 kPa | 118.8 mPa·s
298.15 K, 74700 kPa | 129.5 mPa·s
298.15 K, 75800 kPa | 130.3 mPa·s
298.15 K, 80500 kPa | 142.3 mPa·s
298.15 K, 98800 kPa | 200.7 mPa·s
298.15 K, 100100 kPa | 201.8 mPa·s
298.15 K, 125900 kPa | 315.8 mPa·s
298.15 K, 150000 kPa | 465.7 mPa·s
298.15 K, 150100 kPa | 473.5 mPa·s
303.15 K, 100 kPa | 22.58 mPa·s and 22.86 mPa·s and 22.84 mPa·s
313.15 K, 100 kPa | 15.16 mPa·s [middle of 6 runs]
313.15 K, 800 kPa | 15.15 mPa·s
313.15 K, 10700 kPa | 18.58 mPa·s
313.15 K, 20600 kPa | 22.64 mPa·s
313.15 K, 30700 kPa | 27.33 mPa·s
313.15 K, 40500 kPa | 32.69 mPa·s
313.15 K, 50200 kPa | 39.01 mPa·s
313.15 K, 60600 kPa | 46.76 mPa·s
313.15 K, 70600 kPa | 55.53 mPa·s
313.15 K, 80600 kPa | 65.68 mPa·s
313.15 K, 91700 kPa | 78.58 mPa·s
313.15 K, 112400 kPa | 108.9 mPa·s
313.15 K, 131700 kPa | 145.3 mPa·s
313.15 K, 151600 kPa | 192.8 mPa·s
313.15 K, 151900 kPa | 196.8 mPa·s
313.15 K, 168600 kPa | 250 mPa·s
313.15 K, 175400 kPa | 276.7 mPa·s
313.15 K, 190000 kPa | 336.9 mPa·s
313.15 K, 190100 kPa | 340.1 mPa·s
313.15 K, 199800 kPa | 379.2 mPa·s
313.15 K, 210400 kPa | 433.8 mPa·s
313.15 K, 227900 kPa | 549.9 mPa·s
313.15 K, 241700 kPa | 669.3 mPa·s
313.15 K, 261500 kPa | 863.8 mPa·s
313.15 K, 279800 kPa | 1065 mPa·s
313.15 K, 300500 kPa | 1395 mPa·s
323.15 K, 100 kPa | 10.73 mPa·s and 10.71 mPa·s and 10.69 mPa·s
333.15 K, 100 kPa | 7.856 mPa·s and 7.861 mPa·s
338.15 K, 100 kPa | 6.785 mPa·s
338.15 K, 9700 kPa | 8.064 mPa·s
338.15 K, 22100 kPa | 9.958 mPa·s
338.15 K, 30100 kPa | 11.36 mPa·s
338.15 K, 40600 kPa | 13.4 mPa·s
338.15 K, 40800 kPa | 13.45 mPa·s
338.15 K, 50300 kPa | 15.55 mPa·s
338.15 K, 60000 kPa | 17.98 mPa·s
338.15 K, 60700 kPa | 17.92 mPa·s
338.15 K, 80700 kPa | 24.24 mPa·s
338.15 K, 100600 kPa | 32.02 mPa·s
338.15 K, 120400 kPa | 41.62 mPa·s
338.15 K, 140400 kPa | 53.67 mPa·s
338.15 K, 160300 kPa | 69.03 mPa·s
338.15 K, 175300 kPa | 82.43 mPa·s
338.15 K, 199800 kPa | 111 mPa·s
338.15 K, 226500 kPa | 150.6 mPa·s
338.15 K, 246000 kPa | 184.6 mPa·s
338.15 K, 255100 kPa | 201.5 mPa·s
338.15 K, 274800 kPa | 252.5 mPa·s
338.15 K, 275200 kPa | 246.9 mPa·s
338.15 K, 300000 kPa | 321.5 mPa·s
338.15 K, 303600 kPa | 337.4 mPa·s
338.15 K, 324900 kPa | 416.3 mPa·s
338.15 K, 350600 kPa | 540.2 mPa·s
338.15 K, 373000 kPa | 677.2 mPa·s
343.15 K, 100 kPa | 5.979 mPa·s [middle of 4 runs]
348.15 K, 100 kPa | 5.281 mPa·s and 5.28 mPa·s and 5.248 mPa·s
348.15 K, 9700 kPa | 6.195 mPa·s
348.15 K, 20600 kPa | 7.41 mPa·s
348.15 K, 30800 kPa | 8.689 mPa·s
348.15 K, 40900 kPa | 10.14 mPa·s
348.15 K, 50400 kPa | 11.63 mPa·s
348.15 K, 60400 kPa | 13.25 mPa·s
348.15 K, 60500 kPa | 13.45 mPa·s
348.15 K, 70300 kPa | 15.23 mPa·s
348.15 K, 70900 kPa | 15.5 mPa·s
348.15 K, 80100 kPa | 17.89 mPa·s
348.15 K, 80300 kPa | 17.39 mPa·s
348.15 K, 90300 kPa | 19.95 mPa·s
348.15 K, 90600 kPa | 20.48 mPa·s
348.15 K, 100100 kPa | 22.65 mPa·s
348.15 K, 100800 kPa | 23.18 mPa·s
348.15 K, 200500 kPa | 71.69 mPa·s
348.15 K, 225500 kPa | 93.81 mPa·s
348.15 K, 250300 kPa | 121.8 mPa·s
348.15 K, 275300 kPa | 157.1 mPa·s
348.15 K, 300000 kPa | 201.5 mPa·s
348.15 K, 319700 kPa | 244.4 mPa·s
348.15 K, 339600 kPa | 295.8 mPa·s
348.15 K, 359000 kPa | 356.2 mPa·s
348.15 K, 378600 kPa | 428.5 mPa·s
353.15 K, 100 kPa | 4.692 mPa·s and 4.695 mPa·s

Conditions | mass density [kg/m3]
273.15 K | 821.58
283.15 K | 815.16
288.15 K | 811.95
293.15 K | 808.74
298.15 K | 805.55
303.15 K | 802.34
313.15 K | 795.93
323.15 K | 789.53
333.15 K | 783.14
343.15 K | 776.77
353.15 K | 770.42
363.15 K | 764.06

— the NIST ThermoML archive (doi:10.1021/je900284z)
